Measurements as given in ChEMBL document CHEMBL1157259, “Cytotoxic and other compounds from Didymochlaena truncatula from the Madagascar rain forest” (J Nat Prod, 2006).
Converted amounts (≈) assume the structure as drawn.

These compounds were tested on A2780 (assay: Cytotoxicity against human A2780 cells by clonogenic assay).
Type: functional, cell-based

Compound	IC50 [µg/mL]
CC[C@@]1(O)C(=O)OCc2c1cc1n(c2=O)Cc2cc3c(OC)cccc3nc2-1	0.02 (≈ 0.0529 µM)
CC[C@@]1(O)C(=O)OCc2c1cc1n(c2=O)Cc2cc3ccccc3nc2-1 [CAMPTOTHECIN]	0.07 (≈ 0.201 µM)
COc1cc(O)cc(/C=C/c2ccccc2)c1 [PINOSYLVIN METHYL ETHER]	10 (≈ 44.2 µM)
